The source of these data is patent publication US4618682A, “2-amino-4,5-dihydro-1H-imidazole-1-carboxanilides” (McNeilab, Inc., priority 1985, dated 1986).

For orientation: ED50 means the dose that gives a 50% effect, or the effect in half of the subjects.

Where a name gives a salt, the structure may show the parent alone.

One data set relates to Gastric fistula rat. The data set can be described thus: acute gastric fistula rat test (antisecretory screen). As to conditions: for inhibition in vivo at 20 mg/kg: intraduodenal, 20 mg/kg I.D., read-out: % Inhibition of gastric secretion; for ED50: po, 1 hr. The data set is classed as in vivo, Female Sprague-Dawley rats. Here is the method:
The principal antisecretory screen is the acute gastric fistula rat test which is carried out as follows: Female Sprague-Dawley rats are used for this study. The weights range from 125-250 gms; however, weights in any given test have a range of ±20 gms. The rats are fasted 24 hours before testing, water is given ad lib. At the time of fasting, the rats are placed in individual cages with wide mesh bottoms. This eliminates the problem of cannibalism and coprophagia. On the day of testing, the rats are weighed beforehand to determine the weight range and to allow for even distribution. Surgery is carried out under light ether anesthesia. As soon as the rat is anesthetized, its teeth are removed using a small pinch pliers. A midline incision is made on the abdomen about 11/2 cm long and the stomach is exposed. If, at this point, the stomach is filled with food or fecal material, the rat is discarded except for orally administered rats. In this case, the stomach contents are gently squeezed into the duodenum. Using a 4-0 polyester fiber suture, a purse string stitch is placed on the fundic portion of the stomach taking care to avoid any blood vessels in the area. A small nick is made into the stomach in the center of the purse string and a cannula, consisting of a small vinyl tube with a flange on one end, is put into the stomach and the purse string is closed tightly around the flange. Immediately following this, the rat is dosed intraduodenally using a volume of 0.5 ml per 100 gm body weight. The abdominal wall and skin are closed simultaneously with three to four 18 mm wound clips. The rat is then placed in a box containing a longitudinal slit which allows the cannula to hang freely and the rat is able to move about unencumbered. At the completion of the procedure, the time is marked 0 minutes. The rat is allowed to stabilize for 30 minutes, at which time the collection tube is discarded and replaced with a clean collection tube to receive the gastric juice. Only a one-hour collection is made for a screening study. In evaluation studies, one- and two-hour collections are made. At the end of the study, the cannula is pulled out and the rat is sacrificed. The gastric contents collected are drained into a centrifuge tube and centrifuged to pack down the sediment. The volume is read and a 1 ml aliquot of the supernatant is put into a beaker containing distilled water and titrated to pH 7 using 0.01 N NaOH. Mean values are determined for volume, titratable acid and total acid output where volume equals total ml of gastric juice minus sediment, titratable acid (mEq/1) equals amount of 0.01 N NaOH needed to titrate the acid to pH 7 times 10 and total acid output equals titratable acid times volume. Results are reported in percent inhibition over control values. In studies using oral administration, the drugs are dosed in a volume of 1 ml per 100 gm body weight one hour before surgery (pretreatment equals 90 minutes). In subcutaneous studies, the drug may be given immediately after the surgical procedure (pretreatment equals 30 minutes) or after the 30-minute stabilization period when the collection tube is changed (pretreatment time equals 0 minutes). The volume used in subcutaneous studies is 0.2 ml per 100 gm body weight.

Data set [1] can be described thus: heat sensitivity of isolated salt. Type of data set: physicochemical. Here is the method: Maintained a temperature of -10° to -13° C. throughout the addition and stirred at -10° to -15° for 3 more hours. Stored the reaction mixture in the refrigerator at +4° C. overnight. Allowed to warm to +10° C. then placed in ice/ H2 O bath and acidified to pH<3 with 10% HCl. Added to 1400 ml of ice/H2 O and stirred. Filtered some insoluble material and the filtrate basified with solid K2 CO3 (keep cold!) to pH 8-9. Filtered the resulting white solid, the free base of the product. Immediately suspended in 200 ml of MeOH and dissolved by addition of ethereal HCl to pH<3. The solvent and excess HCl were removed in vacuo to yield the crude product, a white solid. The free base was regenerated again as above and converted to the hydrochloride as before. […] 210°--212° C.

The test system of data set [2] is Spontaneously hypertensive rat. Nature of the data set: Rodent Antihypertensive Screen (arterial pressure and heart rate, aortic cannula). Type of data set: in vivo, adult spontaneously hypertensive rats (Charles River). The note with it: for Duration / Effect on heart rate / Max. decr. in MAP: 35 mg/kg p.o., spontaneously hypertensive rat. From the text:
This test evaluates compounds for effects on arterial pressure and heart rate. In this test, the arterial pressure of adult spontaneously hypertensive rats (Charles River) is monitored directly via an aortic cannula. Rats are anesthetized with an inhalation anesthetic (methoxyflurane). The left carotid artery is isolated and cannulated. The tip of the cannula is advanced to the aorta and the cannula is exteriorized behind the neck at the level of the scapula. Animals are placed in individual cages and allowed to recover from the anesthetic and are kept unrestrained. The arterial cannula is connected to the pressure transducer which is attached to the recorder. Heart rate is determined from the arterial pressure recording. The test compounds are administered either orally (p.o.) by gavage or by intraperitoneal (i.p.) injection. The arterial pressure and heart rate are monitored for a minumum of 24 hours. A test compound is considered to be active as an antihypertensive agent if the mean arterial pressure (MAP) indicates a fall of >15 mm of Hg. Each animal serves as his own control. The results of this test employing at least 3 rats per dose level for each compound and performed with various compounds of the present invention are shown in Table I.

With `NC1=NCCN1C(=O)Nc1ccc(Cl)c(Cl)c1` [Example 8, 2-Amino-N-(3,4-dichlorophenyl)-4,5-dihydro-1H-imidazole-1carboxamide Monohydrochloride Monohydrate, Compound with 1,1'Oxybisethane (12:1)], in the data set with Gastric fistula rat, the inhibition in vivo at 20 mg/kg worked out at 96% and it took a dose of 24.8 mg/kg to reach the 50% effect level (ED50). In data set [1], the sensitivity to heat entry is on record as “sensitive to heat”. Further, the “loss of HCl on heating” value in data set [1] (above 50° /vac) is given as “may lose HCl”. Further, in data set [2], the Duration was found to be 2.0 h, the “Effect on heart rate” value is listed as -68 beats/min and the “Max. decr. in MAP” value turned out to be 44 mm Hg.

In the case of `NC1=NCCN1C(=O)Nc1cccc(C(F)(F)F)c1` [Example 26, 2-Amino-4,5-dihydro-N-(3-trifluoromethylphenyl)-1H-imidazole-1-carboxamide Monohydrochloride Hemihydrate], the inhibition in vivo at 20 mg/kg in the data set on Gastric fistula rat is 99%. Besides, in data set [2], the Duration is 2.0 h, the “Effect on heart rate” value is -71 beats/min and the “Max. decr. in MAP” value was found to be 24 mm Hg.

Take `NC1=NCCN1C(=O)Nc1ccc(Cl)cc1` [Example 27, 2-Amino-N-(4-chlorophenyl)-4,5-dihydro-1H-imidazole-1-carboxamide Monohydrochloride Hydrate (17:1)]: in the data set with Gastric fistula rat, the inhibition in vivo at 20 mg/kg turned out to be 95% and the ED50 was 29.3 mg/kg. Besides, in data set [2], the Duration is 15 h, the “Effect on heart rate” value was -66 beats/min and the “Max. decr. in MAP” value was found to be 41 mm Hg. Further, the “antihypertensive activity compared with corresponding rearranged N-aryl-N'-(4,5-dihydro-1H-imidazol-2-yl) ureas IV” value in data set [2] (versus corresponding ureas IV) is “more potent antihypertensive activity”.
